Literature values in Sander's compilation of Henry's law constants.
Blank lines part the entries; values can stand above or below the molecule they belong to.

Experiment: Henry solubility constant Hcp at 298.15 K (mol/(m3 Pa))
Details: cited value
[1] = reference: Burkholder et al. (2015)
[2] = reference: Burkholder et al. (2019)
[3] = reference: Sander et al. (2006)
[4] = reference: Sander et al. (2011)
[5] = reference: Fogg and Sangster (2003)
[6] = reference: Barcelo and Hennion (1997)

SMILES: CCC(C)(C)O [2-methyl-2-butanol]
Henry solubility constant Hcp (reference: Brockbank (2013)): 0.65

SMILES: CCC(C)Cl (centres undefined) [2-chlorobutane]
Henry solubility constant Hcp (reference: Brockbank (2013)): 0.00041

SMILES: CCCN(CCC)N=O [N-nitrosodipropylamine]
Henry solubility constant Hcp (reference: Mackay et al. (1995)): 1.6

SMILES: [O][Cl+][O-] [chlorine dioxide]
Henry solubility constant Hcp [1]: 0.01
Henry solubility constant Hcp [2]: 0.01
Henry solubility constant Hcp [3]: 0.01
Henry solubility constant Hcp [4]: 0.01
Henry solubility constant Hcp (reference: Young (1983)): 0.01

Henry solubility constant Hcp (reference: Brockbank (2013)): 0.029
SMILES: C=C(C)C(=O)OC [methyl methacrylate]

Henry solubility constant Hcp (reference: Brockbank (2013)): 0.00029
SMILES: C1=CCCCC1 [cyclohexene]

SMILES: c1ccc2c(c1)Cc1ccccc1-2 [2,3-benzindene]
Henry solubility constant Hcp (reference: Brockbank (2013)): 0.13
Henry solubility constant Hcp [5]: 0.11
Henry solubility constant Hcp (reference: Goldstein (1982)): 0.084
Henry solubility constant Hcp (reference: HSDB (2015)): 0.099
Henry solubility constant Hcp (reference: McCarty (1980)): 0.047

Henry solubility constant Hcp (reference: Brockbank (2013)): 0.034
SMILES: CCCCCCC=O [heptanal]

SMILES: CBr [bromomethane]
Henry solubility constant Hcp (reference: Brockbank (2013)): 0.0015
Henry solubility constant Hcp [1]: 0.0017
Henry solubility constant Hcp [2]: 0.0015
Henry solubility constant Hcp (reference: Goldstein (1982)): 4.4e-05
Henry solubility constant Hcp [3]: 0.0017
Henry solubility constant Hcp [4]: 0.0017

SMILES: Cc1ccc(N=CN(C)C=Nc2ccc(C)cc2C)c(C)c1 [amitraz]
Henry solubility constant Hcp (reference: MacBean (2012b)): 1

SMILES: CCI [iodoethane]
Henry solubility constant Hcp (reference: Brockbank (2013)): 0.0015
Henry solubility constant Hcp [5]: 0.0015

SMILES: ClC(Cl)=C(Cl)C(Cl)=C(Cl)Cl [hexachlorobutadiene]
Henry solubility constant Hcp (reference: Brockbank (2013)): 0.00056
Henry solubility constant Hcp [5]: 0.00083
Henry solubility constant Hcp (reference: Goldstein (1982)): 0.00098
Henry solubility constant Hcp (reference: Horvath and Getzen (1999)): 0.00096

Henry solubility constant Hcp (reference: Brockbank (2013)): 0.014
SMILES: CC(C)(C)OC=O [(1,1-dimethylethyl)-methanoate]

Henry solubility constant Hcp (reference: Brockbank (2013)): 0.015
SMILES: CCOC(=O)C(C)C [ethyl 2-methylpropanoate]

SMILES: CNC(=O)O/N=C/C(C)(C)SC [aldicarb]
Henry solubility constant Hcp [6]: 31

Henry solubility constant Hcp (reference: Brockbank (2013)): 5.1e-05
Henry solubility constant Hcp (reference: Goldstein (1982)): 6.2e-05
SMILES: C1CCCCC1 [cyclohexane]

Henry solubility constant Hcp (reference: Brockbank (2013)): 0.17
SMILES: CCOC(=O)c1ccccc1 [ethyl benzoate]

Henry solubility constant Hcp (reference: Brockbank (2013)): 3e-09
SMILES: FC(F)(F)C(F)(F)C(F)(F)C(F)(F)C(F)(F)C(F)(F)C(F)(F)F [hexadecafluoroheptane]

SMILES: CCCl [chloroethane]
Henry solubility constant Hcp (reference: Brockbank (2013)): 0.00081
Henry solubility constant Hcp [1]: 0.00083
Henry solubility constant Hcp [2]: 0.00081
Henry solubility constant Hcp (reference: Goldstein (1982)): 0.00068

Henry solubility constant Hcp (reference: Brockbank (2013)): 1.5
SMILES: O=C1CCCCC1 [cyclohexanone]

SMILES: CCOCCOC(C)=O [2-ethoxyethyl ethanoate]
Henry solubility constant Hcp (reference: Brockbank (2013)): 3

SMILES: CO/N=C(/C(=O)OC)c1ccccc1CO/N=C(\C)c1cccc(C(F)(F)F)c1 [trifloxystrobin]
Henry solubility constant Hcp (reference: MacBean (2012b)): 430

Henry solubility constant Hcp (reference: Brockbank (2013)): 0.051
SMILES: CCCC(=O)CCC [4-heptanone]

SMILES: Oc1ccc(Cl)cc1Cl [2,4-dichlorophenol]
Henry solubility constant Hcp (reference: Goldstein (1982)): 1.5

SMILES: CCCCCCCBr [1-bromoheptane]
Henry solubility constant Hcp (reference: Brockbank (2013)): 0.00022

SMILES: Cc1nnc(-c2ccccc2)c(=O)n1N [metamitron]
Henry solubility constant Hcp [6]: 1e+06

SMILES: Cc1cccc(C=O)c1 [3-methylbenzaldehyde]
Henry solubility constant Hcp (reference: Brockbank (2013)): 0.35

SMILES: CC(C)N(C(=O)SCC(Cl)=C(Cl)Cl)C(C)C [triallate]
Henry solubility constant Hcp [6]: 0.01

SMILES: CCCN(CCC)c1c([N+](=O)[O-])cc(C(F)(F)F)cc1[N+](=O)[O-] [trifluralin]
Henry solubility constant Hcp [6]: 0.0025
Henry solubility constant Hcp (reference: HSDB (2015)): 0.096

Henry solubility constant Hcp (reference: Brockbank (2013)): 1.3
SMILES: COCCOC [1,2-dimethoxyethane]

SMILES: CNC(C)=O [N-methylacetamide]
Henry solubility constant Hcp [1]: 2100
Henry solubility constant Hcp [2]: 2100

SMILES: Nc1c(Cl)c(Cl)nc(C(=O)O)c1Cl [picloram]
Henry solubility constant Hcp [6]: 290

SMILES: CNC(=O)Oc1ccccc1OC(C)C [propoxur]
Henry solubility constant Hcp [6]: 0.076

SMILES: OCOO [hydroxymethyl hydroperoxide]
Henry solubility constant Hcp [1]: 17000
Henry solubility constant Hcp [2]: 17000
Henry solubility constant Hcp [3]: 17000
Henry solubility constant Hcp [4]: 17000

SMILES: CN(Cl)Cl [N,N-dichloromethylamine]
Henry solubility constant Hcp [1]: 0.0033
Henry solubility constant Hcp [2]: 0.0033

SMILES: CCN [ethanamine]
Henry solubility constant Hcp (reference: Brockbank (2013)): 0.84
Henry solubility constant Hcp [1]: 0.8
Henry solubility constant Hcp [2]: 0.8

SMILES: ClCc1ccccc1 [(chloromethyl)-benzene]
Henry solubility constant Hcp (reference: Brockbank (2013)): 0.022

SMILES: CS(=O)(=O)c1cc(C(F)(F)F)ccc1C(=O)c1cnoc1C1CC1 [isoxaflutole]
Henry solubility constant Hcp (reference: MacBean (2012b)): 53000

Henry solubility constant Hcp (reference: Brockbank (2013)): 0.0006
SMILES: CCCCCc1ccccc1 [pentylbenzene]

Henry solubility constant Hcp (reference: Brockbank (2013)): 2.4e-05
SMILES: C/C=C\CCCC [cis-2-heptene]

SMILES: N#Cc1c(Cl)cccc1Cl [2,6-dichlorobenzenenitrile]
Henry solubility constant Hcp [6]: 0.015

SMILES: COc1nc(NC(C)C)nc(NC(C)C)n1 [prometone]
Henry solubility constant Hcp [6]: 110

SMILES: CCCCCCCCSC(=O)Oc1cc(Cl)nnc1-c1ccccc1 [pyridate]
Henry solubility constant Hcp [6]: 300

SMILES: CCSC [ethyl methyl sulfide]
Henry solubility constant Hcp [1]: 0.0042
Henry solubility constant Hcp [2]: 0.0042
